This note sets out measurements from patent US20230322670A1, “DIPYRROLIDINE-1-ONE COMPOUNDS AND THEIR PREPARATION METHOD” (Poseidon Pharmaceutical Co., Ltd., priority 2020, published 2023).

Assay [1] is described as follows: Antitumor activity test, sulfonyl rhodamine B (SRB) method. The format is cell-based, human. Conditions: compound concentration 10^−5 M, A-549 cells cultured 72 hours, OD560. As for the experimental part: (§1) Antitumor activity test: Sulfonyl rhodamine B (SRB) method was used to determine the in vitro anti-tumor activity of A-549 […] cancer cells. A-549 human […] cancer cells in logarithmic growth were inoculated into a 96 well microculture plate with the amount of 90 μL/well. 24 hours later, the solutions respectively containing the compounds 1a, 1b, 1c, 1d, 1e, 1f, 1g, 1h, and 1i of the disclosure were added to the wells with each 10 μL/well, and three wells for each concentration. A cell-free zero adjustment hole was also provided. The concentrations of the compounds 1a, 1b, 1c, 1d, 1e, 1f, 1g, 1h, and 1i in corresponding solution were all 10^−5 M. The tumor cells were cultured at 37° C. under 5% CO2 for 72 hours. The culture medium was discarded, and 100 μL/well of 10% TCA was added to the cells for fixing at 4° C. for 1 hour. The cells were washed three times with distilled water, and dried naturally. 4 mg/mL SRB (Sigma) staining solution of 100 μL/well was added for staining at room temperature for 15 minutes, washed three times with 1% acetic acid aqueous solution, and dried naturally. 100 μL/well of 10 mM Tris base aqueous solution was further added. Then, the optical density (OD560) value was measured using an enzyme-linked immunosorbent assay at a wavelength of 560 nm. The inhibition rate of the tested compounds on tumor cell growth was calculated according to the formula: (control group OD value-administration group OD value)/control group OD value×100%.

Assay [2] concerns A-549 human breast cancer cells. The assay is described as above. The format is cell-based. Conditions: Homo sapiens, A549, compound concentration 10^−5 M, A-549 cells cultured 72 hours, OD560, read-out: Inhibitory rates on tumor cell growth (%). As for the experimental part:
as §1

`COC(=O)CCc1c(C)[nH]c(C=C2NC(=O)C(CCS(=O)(=O)c3ccc(C)cc3)=C2C)c1C` [Compound 1i, 3,7,9-trimethyl-8-(2-methoxycarbonylethyl)-2-(2-nenenebap-toluenesulfonylethyl)-dipyrrolomethen-1-one]: the “Inhibitory rates on tumor cell growth (%)” value (“Inhibitory rates … (%)” below) in assay [1] stood at 28.4%.

In the case of “3,7-dimethyl-8-(2-ethoxycarbonylethyl) -2-(2-p-toluenesulfoethyl)-dipyrrolidene-1-one [Compound 1g]”, the “Inhibitory rates … (%)” value in assay [1] is given as 35.6%.

Regarding `COC(=O)CCc1c(C)[nH]c(/C=C2\NC(=O)C(CCSc3ccc(C)cc3)=C2C)c1C` [Compound 1d, 3,7,9-trimethyl-8-(2-methoxycarbonylethyl) -2-(2-p-toluenesulfoethyl)-dipyrrolidene-1-one], the inhibition at 10 µM in assay [2] worked out at 37.8%.

Take “9-tert-butyloxycarbonyl-3,7-dimethyl-8-(2-methoxycarbonyl ethyl)-2-(2-p-tolylene sulfonyl group ethyl)-dipyrrolomethen-1-one [Compound 1b]”: the “Inhibitory rates … (%)” value in assay [1] came to 57.0%.

“3,7,9-trimethyl-8-(2-methoxycarbonyl ethyl)-2-(2-p-tolylene sulfonyl group ethyl)-dipyrrolidone [Compound 1h]”: the “Inhibitory rates … (%)” value in assay [1] is listed as 11.7%.

Take “3,7,9-trimethyl-8-(2-carboxyethyl) -2-(2-p-toluenesulfoethyl)-Dipyrrolidene-1-one [Compound 1f]”: in assay [1], the “Inhibitory rates … (%)” value stood at 23.5%.

With `COC(=O)CCc1c(C)[nH]c(/C=C2\NC(=O)C(CC[S+]([O-])c3ccc(C)cc3)=C2C)c1C` (stereo not drawn) [Compound 1e, 3,7,9-trimethyl-8-(2-methoxycarbonylethyl)-2-(2-p-tolylenesulfonylgroupethyl)-dipyrrolidone], the inhibition at 10 µM in assay [2] came to 63.4%.

On to `COC(=O)CCc1c(C(=O)OC(C)(C)C)[nH]c(C=C2NC(=O)C(CCS(=O)(=O)c3ccc(C)cc3)=C2C)c1C` [Compound 1c, 9-tert-butyloxycarbonyl-3,7-dimethyl-8-(2-methoxycarbonylethyl)-2-(2-nenenebap-toluenesulfonylethyl)-dipyrrolomethen-1-one], for which, in assay [1], the “Inhibitory rates … (%)” value worked out at 34.4%.

With “9-tert butoxycarbonyl-2,7-dimethyl-8-(2-methoxycarbonylethyl)-3-(2-p-toluenesulfoethyl)-dipyrrolidene-1-one [Compound 1a]”, the “Inhibitory rates … (%)” value in assay [1] amounted to 72.3%.
